Assay results taken from US20220400703A1, “FORMULATIONS FOR TREATMENT OF VIBRIO INFECTIONS” (ARIZONA BOARD OF REGENTS ON BEHALF OF THE UNIVERSITY OF …, priority 2019, published 2022).
“And” between values parts separate entries of the source, which are not always exact repeats. Equal entries are not always repeated. “Also recorded” adds a separate entry of the source.

What was measured:
[1] = system: Vibrio parahaemolyticus (Strain A3); experiment: Minimum inhibitory concentration (MIC) assay in liquid culture (OD600 and colony count); assay type: cell-based; details: for OD600: 24 hr; for MIC assay results: effective concentration (Example 1): Example 1, liquid culture; for MIC (Example 2): TSB+ liquid culture, OD600 and colony count, 24 h and 48 h; for Extract concentration at which bacterial count is zero / no survivors: viable colony count at 48 h on TSA+ plates
Description: Absorbance (OD600) and total colony count (upon plating overnight culture grown in the presence of natural extracts) were employed for screening.
(§1) VPAHPND (13-028/A3) was revived from glycerol stock kept in −80 degrees C. in Aquaculture Pathology Laboratory following a previous publication (Han et al., 2015). Briefly, 800 mL of Tryptic Soy Broth (TSB) containing 2% NaCl (TSB+) medium was prepared and autoclaved. The bacterial stock was thawed on ice and briefly vortexed before transferring 250 μl of the bacterial culture to 5 ml TSB+ in a 50 ml flask. The flask was incubated at 28 degrees C. in a shaker incubator (CORNING, Model LSE) (120 rpm) for 2 h. After the incubation, the broth was transferred into 50 ml TSB+ in a 250 ml flask before incubating at 28 degrees C. in a shaker incubator (120 rpm) for 2 h. After 2 h., the bacterial culture was mixed with 300 ml TSB and incubated for 24 h at 28 degrees C. After 24 h, the optical density (OD) of the culture was measured at 600 nm. Under these culture conditions, the OD values should exceed 2.8. The broth was diluted to 1×10^7 CFU/ml based on the OD reading. A 10-fold serial dilution of the bacterial culture was prepared and the live bacterial count upon overnight growth was determined by plating the culture on Tryptic Soy Agar (TSA) containing 2% NaCl (TSA+) plates.
Initially extracts were diluted up to 50% with diluent fish oil, then a serial dilution of extracts was prepared Concentrations of extracts range between [0.3-0.0937% (v/v)], which was prepared in TSB+ (Tryptic soy broth) medium. The culture medium TSB+ (2 ml) containing NEs was inoculated with 100 μL (approx. 1×10^7 CFU/mL) of an overnight culture of the pathogen and briefly mixed by vortexing before incubating at 28 degrees C. The OD600 values was recorded at 12, 24 and 48 h post-incubation (FIG. 9). In addition, at each time point and for each concentration of the NEs, aliquots of bacterial suspension were inoculated on TSA+plate before incubating overnight at 28 degrees C. The MIC for each NE was determined by recording OD600 values and taking bacterial count. For each NE, the MIC assay was repeated three times on different days, and the average OD600 value was taken to determine the MIC for each concentration of a corresponding NE.

[2] = system: VPAHPND (13-028/A3), AHPND-causing Vibrio parahaemolyticus; experiment: Paper disk diffusion assay; assay type: cell-based; details: mean ± SD; for Average diameter of inhibitory zone (mm) CNE 1/16: extract concentration 1/16 (v/v); for Average diameter of inhibitory zone (mm) CNE 1/16 / Average diameter of inhibitory zone (mm) CNE ¼ / Average diameter of inhibitory zone (mm) CNE ½ / Average diameter of inhibitory zone (mm) CNE ⅛: ND: not detected, <7 mm = no antimicrobial activity; for Average diameter of inhibitory zone (mm) CNE ¼: extract concentration ¼ (v/v); for Average diameter of inhibitory zone (mm) CNE ½: extract concentration ½ (v/v), 2 μL on paper disk, TSA+, 28° C., 24 hr; for Average diameter of inhibitory zone (mm) CNE ⅛: extract concentration ⅛ (v/v)
Description: as §1
The antibacterial activities of the NEs were tested using a paper disk diffusion assay following a previously published method with some modifications (Mith et al., 2014). Briefly, the extracts were diluted with fish oil (NE01-NE013) or DMSO (NE14 to NE18) at the following concentrations: 1:1, 1:2, 1:4, and 1:8. The VPAHPND (13-028/A3) culture lawns were created on TSA+plates by thoroughly streaking the culture over the entire surface of the plate with a cotton swab. Meanwhile, 2 μL of each concentration of the NEs was soaked on to a paper disk for 15 min before placing in the center of the bacteria inoculated TSA+plates. Fish oil and DMSO were used as controls. For each dilution of the NE two replicates were done. The plates were then incubated at 28° C. for 24 hr. The efficacy of the extract in inhibiting bacterial growth was determined by measuring the diameter of clear zones for each concentration to the nearest millimeter (mm). The diameter of the inhibitory zone <7 mm was considered as having no antimicrobial activity (Mith et al., 2014). The experiments were repeated four times for all 18 NEs, and the average was taken to calculate the diameter of the inhibitory zone.

[3] = system: VPAHPND cells; experiment: Scanning electron microscopy of NE treated VPAHPND cells; assay type: cell-based, Vibrio parahaemolyticus; details: sub-inhibitory concentration of extract, 24 hr incubation
Description: The effect of NEs on bacterial cells was determined by culturing VPAHPND in medium containing NEs and examining the cells under a scanning electron microscope (SEM). The subinhibitory concentration of extracts used in the medium was MIC. The control treatment was VPAHPND grown in the presence of fish oil. Samples were fixed by following a protocol described by Lv et al. (2011) and McQuade et al. (2012) with some modifications. Briefly, 25 μl of 8% glutaraldehyde solution (Electron Microscopy Sciences, Hatfield, Pa.) was added to 200 μl of the overnight culture of bacteria. After 40 minutes of incubation at room temperature, samples were washed three times with 1× phosphate-buffered saline (PBS, pH 7.0). Subsequently, samples were washed with water and stained with 1% osmium tetroxide (Ted Pella, Inc., Redding, Ariz.). Finally, samples were washed in water and dehydrated in a series of ethanol solutions with concentrations ranging from 30% to 90% (v/v). The slides with fixed bacterial cells were mounted, sputter-coated in gold under vacuum, and examined using a […] field emission scanning electron microscope (ANATECH, USA).

[4] = system: AHPND-causing Vibrio parahaemolyticus; experiment: Histopathology (H&E) of hepatopancreas of shrimp from the AHPND bioassay; assay type: in vivo, Penaeus vannamei
Description: (§2) Specific Pathogen Free shrimp (P. vannamei) (avg. weight 1-2 g) were stocked at a density of 10 shrimp/tank. In total there were two treatments and two controls: shrimp fed diet containing 20% NE05, 10% NE05, a positive and a negative control (shrimp fed diet containing fish oil). Each treatment and control had two replicates. Animals in all treatments except the negative control were subjected to an immersion challenge with V. parahaemolyticus. In the negative control tanks, sterilized TSB+ medium was added instead of bacterial suspension. Throughout the experiment, shrimps were fed corresponding diets daily at 5% of their body weight. The experiments were repeated three times. On day 6 post-feeding of the experimental diets, shrimps were challenged with V. parahaemolyticus at a dose of 10^6 CFU/ml (500 ml of V. parahaemolyticus culture grown for 24 h, OD600 of 5). After the bacterial challenge, tanks were monitored several times a day, and mortalities were recorded, and dead shrimps were removed immediately. Hepatopancreas tissue from moribund shrimp was dissected, half of the tissue was preserved in Davidson's fixative for histopathology, while the remaining half of hepatopancreas was stored at −20 degrees C. for PCR detection of V. parahaemolyticus. […] At the termination of the bioassay, average mortality for each treatment was calculated, and one-way ANOVA was performed to determine any significant difference among different treatments. A (p-value <0.05) between treatments was considered significant.
Moribund shrimp were fixed in Davidson's alcohol-formalin-acetic acid (AFA). The samples were processed, embedded in paraffin, and sectioned ([…]) following a standard protocol (Lightner, 1996). The sections were stained with hematoxylin and eosin (H&E) and examined using a light microscope for histological lesions of AHPND (Tran et al., 2013).

[5] = system: AHPND-causing Vibrio parahaemolyticus; experiment: AHPND bioassay: NE05 in diet, immersion challenge (clinical signs, survival, mortality); assay type: in vivo, Penaeus vannamei; details: for Percent survival: 7 days post-challenge, three independent experiments
Description: The efficacy of NE05 in preventing AHPND was evaluated by using an in vivo assay. The NE05 was mixed with a commercially pelleted shrimp diet at concentrations of 20% and 10% (v/w). Commercial diets containing 20% and 10% fish oil were used as controls. The feed was prepared using a standard feed maker (CORNING, Model LSE) and dried in a chemical hood for 24 h at room temperature. The feed was coated with fish oil dried for an additional 12 h to prevent the smell and increase palatability.
Ten 37 L glass tanks were used in this study. Seawater was prepared following a SOP used in Aquaculture Pathology Laboratory. Approximately 800 g of sea salt (Marinex, Baltimore, Md.) was mixed with 30 L of tap water to get 20-25 ppt of salinity. After the marine salt was dissolved, salinity was checked using a refractometer (SPER SCIENTIFIC, Model #300011). The salinity level of the water was adjusted by adding water until the range needed for the study was reached (20-25 ppt). Throughout the experiment, the room temperature was maintained at 29±2 degrees C. using a heater. Before starting the bioassay, the tanks were held for two days without any animal to equilibrate the water temperature to that of the room. The water temperature was maintained at 29±2 degrees C. Each tank was equipped with an air pump having an air capacity of 2.5 liters/min connected to two air stones. One air stone was directly immersed into the tank, and the other one was connected to the filters. Disinfected weight was kept above each air stone. The heater was kept inside the room during the experiment.
as §2

Compound	MIC assay results: effective concentration (Example 1) [1] [v/v %]	MIC (Example 2) [1] [v/v %]	Extract concentration at which bacterial count is zero / no survivors [1]	Average diameter of inhibitory zone (mm) CNE 1/16 [2] [mm]	Average diameter of inhibitory zone (mm) CNE ¼ [2] [mm]	Average diameter of inhibitory zone (mm) CNE ½ [2] [mm]	Average diameter of inhibitory zone (mm) CNE ⅛ [2] [mm]	Bacterial cell morphology under SEM [3]	also measured
CC(C)=CCCC(C)=CC=O [NE01, Citral]	0.015	0.15	0.15 % (v/v)	7.48 ± 0.42	12.53 ± 0.50	17.75 ± 1.4	9.36 ± 0.58	a few irregular wrinkled cells but also had a lot of intact cells	OD600 ([1]; extract concentration 0.0983%): 2.5; OD600 ([1]; extract concentration 0.15% (v/v)): zero; Bacterial count ([1]; 48 h, extract concentration 0.0983% (v/v)): 2.5×10^9 CFU/ml
Cc1ccc(C(C)C)cc1O [NE03, Cavacrol]	0.007	0.075	0.075 % (v/v)	8.53 ± 0.16	16 ± 0.77	20.51 ± 0.97	13.53 ± 0.42	non-intact lysed cells with possible leaking out of cytoplasmic constituents; also recorded: disruption of cell surface and leaking of cytoplasmic components; also recorded: affected bacterial cell wall resulting in its disruption and leaking of intracellular components	
O=C/C=C/c1ccccc1 [NE05, Trans Cinnamaldehyde]	0.002	0.02	0.02 % (v/v)	9.36 ± 0.32	18.66 ± 0.98	26±1.8	14.03 ± 0.80	extensive cell wall damage, and possible leaking out of intracellular components; also recorded: disruption of cell surface and leaking of cytoplasmic components; also recorded: affected bacterial cell wall resulting in its disruption and leaking of intracellular components	Histopathology of hepatopancreas ([4]; NE05-10% treatment, 24 h post-challenge): Mild sloughing of epithelial cells in hepatopancreatic tubule; Histopathology of hepatopancreas ([4]; NE05-10% treatment, 48 h post-infection): hallmark of AHPND infection; Histopathology of hepatopancreas ([4]; NE05-20% treatment, 24 & 48 h post-challenge): did not show any lesions that are considered pathognomonic of AHPND; also recorded: showed no lesions that are pathognomonic of AHPND; H&E histological section of HP tissue (FIGS. 19E-19F) ([4]; diet containing NE05-10%, challenged with AHPND): Terminal phase lesions displaying sloughing of necrotic HP tubule epithelial cells; H&E histological section of HP tissue (FIGS. 19G-19H) ([4]; diet containing NE05-20%, challenged with AHPND): Hepatopancreatic tubule appear similar to healthy animals; Mortality by day 3 ([5]; diet containing NE05-10%): 85%; Time at which mortality began post-challenge ([5]; diet containing NE05-10%): 10 h; Percent survival ([5]; diet containing NE05-10%): 15%; Mortality during the first 24 h post-challenge ([5]; diet containing NE05-20%): did not show mortality; Percent survival ([5]; diet containing NE05-20%): 100% and 93%; Mortality by day 2 ([5]; diet containing NE05-20%, thereafter no mortality): 4%; Gross clinical signs of AHPND ([5]; shrimp fed diet containing NE05 at 10%, immersion challenge): appeared clinically similar to the animals fed commercial diet; also recorded: HP appeared pale and gut empty
Doxycycline Hyclate [reference compound]									Average diameter of inhibitory zone (mm), antibiotic reference standard ([2]; Doxycycline Hyclate 10 μg): 24.43±0.57 mm
